Converted amounts (≈) assume the structure as drawn.
Tested on: Staphylococcus aureus
Assay: antibacterial activity test (minimum concentration inhibitory to growth)
Type: cell-based
Conditions: for MIC: Staphylococcus aureus; for antibacterial activity against Gram-positive bacteria, particularly against Staphylococcus aureus: general statement in words

Row | MIC [µg/mL] | SMILES | antibacterial activity against Gram-positive bacteria, particularly against Staphylococcus aureus
1 | 10 to 100 (≈ 62.1 to 621 µM) | COC(=O)C[C@@H](N)CC(=O)O [Example 1 (b), β-(S)-aminoglutaric acid mono-methyl ester] | exhibit antibacterial activity
2 | 20 (≈ 124 µM) | COC(=O)C[C@H](N)CC(=O)O [Example 4, β-(R)-aminoglutaric acid mono- methyl ester] | exhibit an antibacterial activity
3 | 20 to 100 (≈ 114 to 571 µM) | CCOC(=O)C[C@@H](N)CC(=O)O [Example 2, β-(S)-Aminoglutaric acid mono-ethyl ester] | exhibit antibacterial activity
4 | 30 to 100 (≈ 171 to 571 µM) | CCOC(=O)C[C@H](N)CC(=O)O [Example 7, β-(R)-Aminoglutaric acid mono-ethyl ester] | 

From patent publication EP0050799B1, “New processes for the production of di-alkyl esters and optically active mono-alkyl esters of 3-aminoglutaric acid” (ZAIDAN HOJIN BISEIBUTSU KAGAKU KENKYU KAI, priority 1980, dated 1982)
